Source: patent publication US4303785A, “Antitumor anthracycline antibiotics” (priority 1978, dated 1981)
Where two headings read alike, the source gives them in different places.

Tested on: L1210 cells
Assay: animal or person
Assay type: in vivo, CDF1 mice
Settings: for response vs control in vivo at 0.15 mg/kg / response vs control in vivo at 0.31 mg/kg / response vs control in vivo at 0.625 mg/kg / response vs control in vivo at 1.25 mg/kg / response vs control in vivo at 2.5 mg/kg / response vs control in vivo at 5 mg/kg: Mus musculus, L1210, ip, 1080 h
Description: D. Representative compounds of general formula I" were tested against experimental animal tumors as follows: […]
CDF1 mice were administered intraperitoneally (i.p.) with 1×10^5 cells/mouse of L1210 cells. After 24 hours had elapsed since inoculation, the mice were administered the test compounds intraperitoneally once daily for 10 consecutive days and observed for a 45 day period.
The antitumor activity was shown by the prolongation rate of survival day (T/C, %) to the survival day of control mice injected with physiological saline.

[1] = 2.5 mg/kg/day i.p., once daily for 10 days
[2] = 5 mg/kg/day i.p., once daily for 10 days
[3] = read-out: Antitumor Activity (T/C, prolongation rate of survival day), 0.15 mg/kg/day i.p., once daily for 10 days
[4] = read-out: Antitumor Activity (T/C, prolongation rate of survival day), 0.31 mg/kg/day i.p., once daily for 10 days
[5] = read-out: Antitumor Activity (T/C, prolongation rate of survival day), 0.625 mg/kg/day i.p., once daily for 10 days
[6] = read-out: Antitumor Activity (T/C, prolongation rate of survival day), 1.25 mg/kg/day i.p., once daily for 10 days
[7] = 0.15 mg/kg/day i.p., once daily for 10 days
[8] = 0.31 mg/kg/day i.p., once daily for 10 days
[9] = 0.625 mg/kg/day i.p., once daily for 10 days
[10] = 1.25 mg/kg/day i.p., once daily for 10 days
[11] = read-out: Antitumor Activity (T/C, prolongation rate of survival day), 2.5 mg/kg/day i.p., once daily for 10 days
[12] = 0.15 mg/kg/day i.p., once daily for 10 days, read-out: Antitumor Activity (T/C, prolongation rate of survival day)
[13] = 0.31 mg/kg/day i.p., once daily for 10 days, read-out: Antitumor Activity (T/C, prolongation rate of survival day)
[14] = 0.625 mg/kg/day i.p., once daily for 10 days, read-out: Antitumor Activity (T/C, prolongation rate of survival day)
[15] = read-out: Antitumor Activity (T/C, prolongation rate of survival day), 5 mg/kg/day i.p., once daily for 10 days

Row | Compound | Antitumor Activity (T/C, prolongation rate of survival day) [1] [%] | Antitumor Activity (T/C, prolongation rate of survival day) [2] [%] | response vs control in vivo at 0.15 mg/kg [3] [%] | response vs control in vivo at 0.31 mg/kg [4] [%] | response vs control in vivo at 0.625 mg/kg [5] [%] | response vs control in vivo at 1.25 mg/kg [6] [%] | Antitumor Activity (T/C, prolongation rate of survival day) [7] [%] | Antitumor Activity (T/C, prolongation rate of survival day) [8] [%] | Antitumor Activity (T/C, prolongation rate of survival day) [9] [%] | Antitumor Activity (T/C, prolongation rate of survival day) [10] [%] | response vs control in vivo at 2.5 mg/kg [11] [%] | also measured
1 | CCOC(C)O[C@@H]1[C@H](C)O[C@@H](O[C@H]2C[C@](O)(C(C)=O)Cc3c(O)c4c(c(O)c32)C(=O)c2c(OC)cccc2C4=O)C[C@@H]1N (single isomer, unassigned) [Example 16-a, 4'-O-(1-ethyloxyethyl) daunomycin a] | 157 | 217 | 96 | 96 | 104 | 102 |  |  |  |  |  | 
2 | CCOC(C)O[C@@H]1[C@H](C)O[C@@H](O[C@H]2C[C@](O)(C(C)=O)Cc3c(O)c4c(c(O)c32)C(=O)c2c(OC)cccc2C4=O)C[C@@H]1N (single isomer, unassigned) [Example 16-b, 4'-O-(1-ethyloxyethyl) daunomycin b] | 133 | 247 |  |  |  |  | 90 | 96 | 108 | 112 |  | 
3 | COc1cccc2c1C(=O)c1c(O)c3c(c(O)c1C2=O)C[C@@](O)(C(C)=O)C[C@@H]3O[C@H]1C[C@H](N)[C@H](OC(C)OCC(C)C)[C@H](C)O1 (single isomer, unassigned) [Example 17-a, 4'-O-(1-isobutyloxyethyl) daunomycin a] |  | 156 | 100 | 100 | 100 | 100 |  |  |  |  | 119 | 
4 | COc1cccc2c1C(=O)c1c(O)c3c(c(O)c1C2=O)C[C@@](O)(C(C)=O)C[C@@H]3O[C@H]1C[C@H](N)[C@H](OC(C)OCC(C)C)[C@H](C)O1 (single isomer, unassigned) [Example 17-b, 4'-O-(1-isobutyloxyethyl) daunomycin b] | 113 | 188 |  |  |  |  | 100 | 100 | 100 | 106 |  | 
5 | CCCCOC(C)O[C@@H]1[C@H](C)O[C@@H](O[C@H]2C[C@](O)(C(C)=O)Cc3c(O)c4c(c(O)c32)C(=O)c2c(OC)cccc2C4=O)C[C@@H]1N (single isomer, unassigned) [Example 18-a, 4'-O-(1-butyloxyethyl) daunomycin a] | 116 | 144 | 110 | 103 | 110 | 116 |  |  |  |  |  | 
6 | CCCCOC(C)O[C@@H]1[C@H](C)O[C@@H](O[C@H]2C[C@](O)(C(C)=O)Cc3c(O)c4c(c(O)c32)C(=O)c2c(OC)cccc2C4=O)C[C@@H]1N (single isomer, unassigned) [Example 18-b, 4'-O-(1-butyloxyethyl) daunomycin b] | 151 | 188 |  |  |  |  | 103 | 96 | 110 | 110 |  | 
7 | COc1cccc2c1C(=O)c1c(O)c3c(c(O)c1C2=O)C[C@@](O)(C(=O)CO)C[C@@H]3O[C@H]1C[C@H](N)[C@H](OC2CCCO2)[C@H](C)O1 (stereo partly drawn) [Example 4, 4'-O-tetrahydrofuranyl adriamycin] | 360 | 314 |  |  |  |  |  |  |  | 179 |  | response vs control in vivo at 0.15 mg/kg [12]: 105%; response vs control in vivo at 0.31 mg/kg [13]: 111%; response vs control in vivo at 0.625 mg/kg [14]: 136%
8 | COc1cccc2c1C(=O)c1c(O)c3c(c(O)c1C2=O)C[C@@](O)(C(=O)CO)C[C@@H]3O[C@H]1C[C@H](N)[C@H](OC2CCCC(COC(C)=O)O2)[C@H](C)O1 (stereo partly drawn) [Example 6, 4'-O-(6-acetoxymethyltetrahydropyranyl) adriamycin] |  |  | 100 | 88 | 106 | 118 |  |  |  |  | 118 | response vs control in vivo at 5 mg/kg [15]: 141%
9 | COc1cccc2c1C(=O)c1c(O)c3c(c(O)c1C2=O)C[C@@](O)(C(C)=O)C[C@@H]3O[C@H]1C[C@H](N)[C@H](OC2CCCO2)[C@H](C)O1 (stereo partly drawn) [Example 12, 4'-O-(tetrahydrofuranyl) daunomycin] |  |  |  |  |  |  |  |  |  |  |  | response vs control in vivo at 0.15 mg/kg [12]: 99%; response vs control in vivo at 0.31 mg/kg [13]: 105%; response vs control in vivo at 0.625 mg/kg [14]: 111%; response vs control in vivo at 1.25 mg/kg (1.25 mg/kg/day i.p., once daily for 10 days, read-out: Antitumor Activity (T/C, prolongation rate of survival day)): 111%; response vs control in vivo at 2.5 mg/kg (2.5 mg/kg/day i.p., once daily for 10 days, read-out: Antitumor Activity (T/C, prolongation rate of survival day)): 160%; response vs control in vivo at 5 mg/kg (5 mg/kg/day i.p., once daily for 10 days, read-out: Antitumor Activity (T/C, prolongation rate of survival day)): 346%
10 | COC(=O)C1CCCC(O[C@@H]2[C@H](C)O[C@@H](O[C@H]3C[C@](O)(C(C)=O)Cc4c(O)c5c(c(O)c43)C(=O)c3c(OC)cccc3C5=O)C[C@@H]2N)O1 (stereo partly drawn) [Example 15, 4'-O-(6-carbomethoxytetrahydropyranyl) daunomycin] |  |  | 100 | 100 | 100 | 100 |  |  |  |  | 106 | response vs control in vivo at 5 mg/kg [15]: 131%
